According to the supplement of paper PMC11061612:

Assays:
Venetoclax = compound: CC1(C)CCC(CN2CCN(c3ccc(C(=O)NS(=O)(=O)c4ccc(NCC5CCOCC5)c([N+](=O)[O-])c4)c(Oc4cnc5[nH]ccc5c4)c3)CC2)=C(c2ccc(Cl)cc2)C1 [Venetoclax]; conditions: max 1 µM
Procedure, shortened: (§1)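 Cancer cell lines were seeded into 1536-well plates in 7.5 μl medium (DMEM/F12 or RPMI, 10% FBS), held 24 hours at 37°C and 5% CO2, and dosed for 72 hours with final DMSO typically 0.2%. Luminescence from CellTiter-Glo 2.0, scaled between blank-well and DMSO-well means, served as viability. The single-agent IC50 was obtained from dose-response fits with a non-linear mixed effects model, each fit being a two-parameter logistic curve.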

AZD8186 = compound: C[C@@H](Nc1cc(F)cc(F)c1)c1cc(C(=O)N(C)C)cc2c(=O)cc(N3CCOCC3)oc12 [AZD8186]
Procedure, shortened: as §1

AZD5991 = compound: Cc1c2c(nn1C)CSCc1cc(n(C)n1)CSc1cc(c3ccccc3c1)OCCCc1c(C(=O)O)n(C)c3c-2c(Cl)ccc13 [AZD5991]; conditions: max 1 µM
Procedure, shortened: as §1

AZD4320 = compound: CN(CC[C@H](CSC1=CC=CC=C1)NC2=C(C=C(C=C2)S(=O)(=O)NC(=O)C3=CC=C(C=C3)N4CCC(CC4)[C@H](C5=CC=CC=C5C6=CC=C(C=C6)Cl)O)S(=O)(=O)C(F)(F)F)CCO [AZD4320]; conditions: max 1 µM
Procedure, shortened: as §1

Selumetinib = compound: Cn1cnc2c(F)c(Nc3ccc(Br)cc3Cl)c(C(=O)NOCCO)cc21 [Selumetinib]
Procedure, shortened: as §1

AZD1775 = compound: C=CCn1c(=O)c2cnc(Nc3ccc(N4CCN(C)CC4)cc3)nc2n1-c1cccc(C(C)(C)O)n1 [AZD1775]; conditions: max 3 µM
Procedure, shortened: as §1

AZD6738 = compound: C[C@@H]1COCCN1C2=NC(=NC(=C2)C3(CC3)[S@](=N)(=O)C)C4=C5C=CNC5=NC=C4 [AZD6738]; conditions: max 10 µM
Procedure, shortened: as §1

Prexasertib = compound: COc1cccc(OCCCN)c1-c1cc(Nc2cnc(C#N)cn2)n[nH]1 [Prexasertib]; conditions: max 1 µM
Procedure, shortened: as §1

AZD0156 = compound: CN(C)CCCOc1ccc(-c2ccc3ncc4c(c3c2)n(C2CCOCC2)c(=O)n4C)cn1 [AZD0156]; conditions: max 3 µM
Procedure, shortened: as §1

Capivasertib = compound: C1CN(CCC1(C(=O)N[C@@H](CCO)C2=CC=C(C=C2)Cl)N)C3=NC=NC4=C3C=CN4 [Capivasertib]; conditions: max 3 µM
Procedure, shortened: as §1

SN-38 = compound: CCc1c2c(nc3ccc(O)cc13)-c1cc3c(c(=O)n1C2)COC(=O)[C@]3(O)CC [SN-38]; conditions: max 0.3 µM
Procedure, shortened: as §1

AZD7648 = compound: Cc1cc2ncnn2cc1Nc1ncc2c(n1)n(C1CCOCC1)c(=O)n2C [AZD7648]; conditions: max 10 µM
Procedure, shortened: as §1

Doxorubicin = compound: COc1cccc2c1C(=O)c1c(O)c3c(c(O)c1C2=O)C[C@@](O)(C(=O)CO)C[C@@H]3O[C@H]1C[C@H](N)[C@H](O)[C@H](C)O1 [Doxorubicin]; conditions: max 1 µM
Procedure, shortened: as §1

SG3199 = compound: CC1=CN2[C@@H](C1)C=NC3=CC(=C(C=C3C2=O)OC)OCCCCCOC4=C(C=C5C(=C4)N=C[C@@H]6CC(=CN6C5=O)C)OC [SG3199]; conditions: max 0.001 µM
Procedure, shortened: as §1

Olaparib = compound: O=C(c1cc(Cc2n[nH]c(=O)c3ccccc23)ccc1F)N1CCN(C(=O)C2CC2)CC1 [Olaparib]; conditions: max 10 µM
Procedure, shortened: as §1

AZD2811 = compound: CCN(CCO)CCCOc1ccc2c(Nc3cc(CC(=O)Nc4cccc(F)c4)[nH]n3)ncnc2c1 [AZD2811]; conditions: max 1 µM
Procedure, shortened: as §1

AZD5153 = compound: COc1nnc2ccc(N3CCC(c4ccc(OCCN5CCN(C)C(=O)[C@H]5C)cc4)CC3)nn12 [AZD5153]; conditions: max 1 µM
Procedure, shortened: as §1

Taselisib = compound: Cc1nc(-c2cn3c(n2)-c2ccc(-c4cnn(C(C)(C)C(N)=O)c4)cc2OCC3)n(C(C)C)n1 [Taselisib]; conditions: max 10 µM
Procedure, shortened: as §1

[1] = compound: O=C(Nc1ccc2[nH]nc(-c3ccncc3)c2c1)[C@@H]1CCN(CC(=O)N2CCN(c3ccc(-c4ncccn4)cc3)CC2)C1; conditions: max 5 µM
Procedure, shortened: as §1

Crizotinib = compound: C[C@@H](Oc1cc(-c2cnn(C3CCNCC3)c2)cnc1N)c1c(Cl)ccc(F)c1Cl [Crizotinib]; conditions: max 10 µM
Procedure, shortened: as §1

Trametinib = compound: CC(=O)Nc1cccc(-n2c(=O)n(C3CC3)c(=O)c3c(Nc4ccc(I)cc4F)n(C)c(=O)c(C)c32)c1 [Trametinib]; conditions: max 1 µM
Procedure, shortened: as §1

5-Fluorouracil = compound: O=c1[nH]cc(F)c(=O)[nH]1 [5-Fluorouracil]; conditions: max 20 µM
Procedure, shortened: as §1

MK-2206 = compound: NC1(c2ccc(-c3nc4ccn5c(=O)[nH]nc5c4cc3-c3ccccc3)cc2)CCC1 [MK-2206]; conditions: max 10 µM
Procedure, shortened: as §1

Alisertib = compound: COc1cc(Nc2ncc3c(n2)-c2ccc(Cl)cc2C(c2c(F)cccc2OC)=NC3)ccc1C(=O)O [Alisertib]; conditions: max 10 µM
Procedure, shortened: as §1

Etoposide = compound: COc1cc([C@@H]2c3cc4c(cc3[C@@H](O[C@@H]3O[C@@H]5CO[C@@H](C)O[C@H]5[C@H](O)[C@H]3O)[C@H]3COC(=O)[C@H]23)OCO4)cc(OC)c1O [Etoposide]; conditions: max 10 µM
Procedure, shortened: as §1

AZD1390 = compound: CC(C)n1c(=O)n(C)c2cnc3cc(F)c(-c4ccc(OCCCN5CCCCC5)nc4)cc3c21 [AZD1390]; conditions: max 0.3 µM
Procedure, shortened: as §1

Gefitinib = compound: COc1cc2ncnc(Nc3ccc(F)c(Cl)c3)c2cc1OCCCN1CCOCC1 [Gefitinib]; conditions: max 10 µM
Procedure, shortened: as §1

AZD5363 = compound: C1CN(CCC1(C(=O)N[C@@H](CCO)C2=CC=C(C=C2)Cl)N)C3=NC=NC4=C3C=CN4 [AZD5363]; conditions: max 10 µM
Procedure, shortened: as §1

Paclitaxel = compound: CC(=O)O[C@H]1C(=O)[C@@]2(C)[C@H]([C@H](OC(=O)c3ccccc3)[C@]3(O)C[C@H](OC(=O)[C@H](O)[C@@H](NC(=O)c4ccccc4)c4ccccc4)C(C)=C1C3(C)C)[C@]1(OC(C)=O)CO[C@@H]1C[C@@H]2O [Paclitaxel]; conditions: max 3 µM
Procedure, shortened: as §1

Carboplatin = compound: C1CC(C1)(C(=O)[O-])C(=O)[O-].N.N.[Pt+2] [Carboplatin]; conditions: max 10 µM
Procedure, shortened: as §1

Savolitinib = compound: C[C@@H](c1ccc2nccn2c1)n1nnc2ncc(-c3cnn(C)c3)nc21 [Savolitinib]; conditions: max 1 µM
Procedure, shortened: as §1

Lapatinib = compound: CS(=O)(=O)CCNCc1ccc(-c2ccc3ncnc(Nc4ccc(OCc5cccc(F)c5)c(Cl)c4)c3c2)o1 [Lapatinib]; conditions: max 10 µM
Procedure, shortened: as §1

Gemcitabine = compound: Nc1ccn([C@@H]2O[C@H](CO)[C@@H](O)C2(F)F)c(=O)n1 [Gemcitabine]; conditions: max 0.3 µM
Procedure, shortened: as §1

Dasatinib = compound: CC1=C(C(=CC=C1)Cl)NC(=O)C2=CN=C(S2)NC3=CC(=NC(=N3)C)N4CCN(CC4)CCO [Dasatinib]; conditions: max 2 µM
Procedure, shortened: as §1

Palbociclib = compound: CC(=O)c1c(C)c2cnc(Nc3ccc(N4CCNCC4)cn3)nc2n(C2CCCC2)c1=O [Palbociclib]; conditions: max 10 µM
Procedure, shortened: as §1

SRA737 = compound: N#Cc1cnc(Nc2cc(NC[C@H]3CNCCO3)c(C(F)(F)F)cn2)cn1 [SRA737]; conditions: max 10 µM
Procedure, shortened: as §1

SIMA (Neuroblastoma)
IC50, cell viability 72 h (Venetoclax): > 1000 nM | IC50, cell viability 72 h (AZD8186; max 3 µM): > 3000 nM | IC50, cell viability 72 h (AZD5991): > 1000 nM | IC50, cell viability 72 h (AZD4320): 299 nM | IC50, cell viability 72 h (Selumetinib; max 3 µM): > 3000 nM | IC50, cell viability 72 h (AZD1775): 211 nM | IC50, cell viability 72 h (AZD6738): 2350 nM | IC50, cell viability 72 h (Prexasertib): 7.67 nM | IC50, cell viability 72 h (AZD0156): > 3000 nM | IC50, cell viability 72 h (Capivasertib): > 3000 nM | IC50, cell viability 72 h (SN-38): 3.66 nM | IC50, cell viability 72 h (AZD7648): > 10000 nM | IC50, cell viability 72 h (Doxorubicin): 706 nM | IC50, cell viability 72 h (SG3199): > 1 nM | IC50, cell viability 72 h (Olaparib): > 10000 nM | IC50, cell viability 72 h (AZD2811): > 1000 nM

RKO (Colorectal Carcinoma)
IC50, cell viability 72 h (Venetoclax): > 1000 nM | IC50, cell viability 72 h (AZD5153): 67.2 nM | IC50, cell viability 72 h (AZD8186; max 10 µM): > 10000 nM | IC50, cell viability 72 h (AZD5991): > 1000 nM | IC50, cell viability 72 h (AZD4320): > 1000 nM | IC50, cell viability 72 h (Taselisib): 2950 nM | IC50, cell viability 72 h [1]: 797 nM | IC50, cell viability 72 h (Crizotinib): 9500 nM | IC50, cell viability 72 h (Selumetinib; max 10 µM): 6520 nM | IC50, cell viability 72 h (AZD1775): 787 nM | IC50, cell viability 72 h (AZD6738): 2040 nM | IC50, cell viability 72 h (Trametinib): 75.3 nM | IC50, cell viability 72 h (5-Fluorouracil): 8590 nM | IC50, cell viability 72 h (Prexasertib): 35.4 nM | IC50, cell viability 72 h (AZD0156): > 3000 nM | IC50, cell viability 72 h (MK-2206): > 10000 nM | IC50, cell viability 72 h (SN-38): 16.5 nM | IC50, cell viability 72 h (Alisertib): 7230 nM | IC50, cell viability 72 h (AZD7648): > 10000 nM | IC50, cell viability 72 h (Etoposide): 6790 nM | IC50, cell viability 72 h (Doxorubicin): 240 nM | IC50, cell viability 72 h (SG3199): > 1 nM | IC50, cell viability 72 h (Olaparib): > 10000 nM | IC50, cell viability 72 h (AZD1390): > 300 nM | IC50, cell viability 72 h (Gefitinib): > 10000 nM | IC50, cell viability 72 h (AZD5363): 5240 nM | IC50, cell viability 72 h (Paclitaxel): 3.91 nM | IC50, cell viability 72 h (Carboplatin): > 10000 nM | IC50, cell viability 72 h (Savolitinib): > 1000 nM | IC50, cell viability 72 h (Lapatinib): > 10000 nM | IC50, cell viability 72 h (Gemcitabine): 9.84 nM | IC50, cell viability 72 h (Dasatinib): > 2000 nM | IC50, cell viability 72 h (Palbociclib): > 10000 nM | IC50, cell viability 72 h (SRA737): 7180 nM | IC50, cell viability 72 h (AZD2811): > 1000 nM

HO-1-u-1 (Oral Cavity Carcinoma)
IC50, cell viability 72 h (Venetoclax): > 1000 nM | IC50, cell viability 72 h (AZD5153): > 1000 nM | IC50, cell viability 72 h (AZD8186; max 10 µM): > 10000 nM | IC50, cell viability 72 h (AZD5991): > 1000 nM | IC50, cell viability 72 h (AZD4320): > 1000 nM | IC50, cell viability 72 h (Taselisib): 618 nM | IC50, cell viability 72 h [1]: 4140 nM | IC50, cell viability 72 h (Crizotinib): > 10000 nM | IC50, cell viability 72 h (Selumetinib; max 10 µM): > 10000 nM | IC50, cell viability 72 h (AZD1775): 816 nM | IC50, cell viability 72 h (AZD6738): 3160 nM | IC50, cell viability 72 h (Trametinib): > 1000 nM | IC50, cell viability 72 h (5-Fluorouracil): > 20000 nM | IC50, cell viability 72 h (Prexasertib): 28.8 nM | IC50, cell viability 72 h (AZD0156): > 3000 nM | IC50, cell viability 72 h (MK-2206): > 10000 nM | IC50, cell viability 72 h (SN-38): 239 nM | IC50, cell viability 72 h (Alisertib): 6330 nM | IC50, cell viability 72 h (AZD7648): > 10000 nM | IC50, cell viability 72 h (Etoposide): > 10000 nM | IC50, cell viability 72 h (Doxorubicin): > 1000 nM | IC50, cell viability 72 h (SG3199): > 1 nM | IC50, cell viability 72 h (Olaparib): > 10000 nM | IC50, cell viability 72 h (AZD1390): > 300 nM | IC50, cell viability 72 h (Gefitinib): > 10000 nM | IC50, cell viability 72 h (AZD5363): 1310 nM | IC50, cell viability 72 h (Paclitaxel): 820 nM | IC50, cell viability 72 h (Carboplatin): > 10000 nM | IC50, cell viability 72 h (Savolitinib): > 1000 nM | IC50, cell viability 72 h (Lapatinib): 7600 nM | IC50, cell viability 72 h (Gemcitabine): > 300 nM | IC50, cell viability 72 h (Dasatinib): 532 nM | IC50, cell viability 72 h (Palbociclib): > 10000 nM | IC50, cell viability 72 h (SRA737): 6170 nM | IC50, cell viability 72 h (AZD2811): > 1000 nM
